Results taken from ChEMBL document CHEMBL1150400, “Lycoparins A-C, new alkaloids from Lycopodium casuarinoides inhibiting acetylcholinesterase” (Bioorg Med Chem, 2008).

Molecular target: T1, Acetylcholinesterase (Bos taurus, UniProt P23795)
T1 sequence (P23795 whole entry): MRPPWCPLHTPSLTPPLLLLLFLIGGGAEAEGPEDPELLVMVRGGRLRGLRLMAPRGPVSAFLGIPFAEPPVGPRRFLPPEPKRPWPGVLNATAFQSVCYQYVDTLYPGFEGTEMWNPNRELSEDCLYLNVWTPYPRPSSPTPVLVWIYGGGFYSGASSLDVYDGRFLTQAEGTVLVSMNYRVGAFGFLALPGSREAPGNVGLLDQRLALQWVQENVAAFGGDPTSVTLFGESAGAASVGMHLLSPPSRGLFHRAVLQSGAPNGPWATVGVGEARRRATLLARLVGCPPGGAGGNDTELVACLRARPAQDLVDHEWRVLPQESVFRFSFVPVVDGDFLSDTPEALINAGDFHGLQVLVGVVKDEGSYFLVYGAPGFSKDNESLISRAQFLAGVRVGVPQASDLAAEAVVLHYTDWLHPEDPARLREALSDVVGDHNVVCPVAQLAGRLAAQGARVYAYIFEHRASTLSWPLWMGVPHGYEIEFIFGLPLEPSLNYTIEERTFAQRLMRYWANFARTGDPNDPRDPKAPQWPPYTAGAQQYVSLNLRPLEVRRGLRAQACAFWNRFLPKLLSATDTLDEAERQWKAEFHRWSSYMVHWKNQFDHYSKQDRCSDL
Experiment: Inhibition of acetylcholinesterase from bovine erythrocyte

Structure (SMILES) | IC50 [µM]
C=C[C@@H]1[C@H]2C=C(C(=O)O)C[C@]1(NC)c1ccc(=O)[nH]c1C2 [LYCOPARIN B] | > 200
C=C[C@@H]1[C@H]2C=C(C(=O)O)C[C@]1(N(C)C)c1ccc(=O)[nH]c1C2 [LYCOPARIN A] | > 200
C=C[C@@H]1[C@H]2C=C(CO)C[C@]1(N)c1ccc(=O)[nH]c1C2 [LYCOPARIN C] | 25
